Measured values reported in PubChem BioAssay AID602296 (Broad Institute, 2012).
Inconclusive results are not listed. Activity calls are given as the source filed them.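 How the source made its calls: active means fitted activation curve crossing 40% at a concentration no higher than the sample's top valid tested dose; inconclusive means flat fitted curve at 30% to 70% activation, or poor curve fit; inactive means signal decrease, flat curve within 30%, or the rest.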

system: NIH3T3-HGL HSF-1 response element luciferase, 48 h; experiment: sustained heat shock response element induction – cell-based, mouse, luciferase, cherry-pick, dose, confirmation (AID 602296);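 further: test compounds applied by themselves with no MG132 co-treatment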

SMILES	AC40
CCC1CCCCN1C(=O)COC(=O)c1cc2ccccc2cc1O (stereo not drawn)	> 26 µM (inactive)
O=C(CC1(O)C(=O)Nc2ccc(Br)cc21)c1ccc2c(c1)OCO2 (stereo not drawn)	> 26 µM (inactive)
CCOC(=O)CN1C=C(c2ccc3ccccc3n2)C(C[N+](=O)[O-])c2ccccc21 (stereo not drawn)	3.31 µM
Cn1c(Cn2nnc3ccccc32)nnc1SCC(=O)c1ccccc1F	20.6 µM
O=C(O)c1c(Cl)c(Cl)c(Cl)c(Cl)c1C(=O)N1CCCC1	> 26 µM (inactive)
CCCCN(CCCNC(=O)C1CCN(S(=O)(=O)CC)CC1)c1ccccc1	10.4 µM
OC(CNCc1cccc(Cl)c1)c1ccccc1 (stereo not drawn)	24.8 µM
Nc1nnc(SCc2c(F)cccc2Cl)s1	14.4 µM
Cc1ccc(N2C(=O)CCC2(C#N)c2ccccc2)cc1 (stereo not drawn)	> 26 µM (inactive)
Nc1nnc(SCC(=O)Nc2cccc3ccccc23)s1	> 26 µM (inactive)
Cc1ccccc1CC1(CO)CCCN(C(=O)c2ccccc2Cl)C1 (stereo not drawn)	> 26 µM (inactive)
COC1(OC)C(/C=C/c2ccc(Cl)cc2)C(C#N)(C#N)C1(OC)OC (stereo not drawn)	16.9 µM
COCc1cc(=O)[nH]c(SCCS(=O)(=O)c2ccc(Cl)cc2Cl)n1	> 12 µM (inactive)
c1ccc2c3c([nH]c2c1)CCNC3	> 26 µM (inactive)
COc1ccc(C2C3=C(CCCC3=O)N(CC(=O)O)C3=C2C(=O)CCC3)cc1Cl	> 26 µM (inactive)
O=C(NCc1ccc(N2CCCC2=O)cc1)Nc1ccccc1	> 26 µM (inactive)
O=C(NNc1cccc(Cl)n1)Nc1ccc(Cl)cc1	> 26 µM (inactive)
CC1(C)CC(=O)C2=C(C1)OC(N)=C(C#N)C2C#Cc1ccccc1 (stereo not drawn)	10.4 µM
O=C(NCc1ccccc1)c1c(Cl)nc(Cl)c(Cl)c1Cl	> 26 µM (inactive)
CCC(C)c1ccccc1NC(=O)c1cc(C)no1 (stereo not drawn)	> 26 µM (inactive)
CCN(CCCNC(=O)CNC(=O)c1nn(-c2ccc(OC)cc2OC)c(=O)c2ccccc12)c1cccc(C)c1	> 26 µM (inactive)
Cc1ccc2nc(NCc3ccccc3)c(C=O)c(=O)n2c1	11 µM

SMILES	AC40
C[C@@H]1C(NC(=O)c2ccccc2)CC2CC1C2(C)C (stereo partly drawn)	> 26 µM (inactive)
CCOC(=O)c1nnsc1Nc1ccc(C)c(C)c1	5.31 µM
Cc1ccc(N2Cc3ccccc3OC(C)C2=O)cc1 (stereo not drawn)	> 26 µM (inactive)
Cc1ccc(O)c(NC(=O)c2onc(C)c2Cl)c1	> 26 µM (inactive)
CC(=O)Nc1ccc(N/C=C/C(=O)C(C)(C)C)cc1	> 26 µM (inactive)
COc1cc2c(cc1NC(=O)COC(=O)[C@@H](NS(=O)(=O)c1ccccc1)C(C)C)oc1ccccc12	> 26 µM (inactive)
CCOc1ccccc1CNCCN1CCOCC1	> 26 µM (inactive)
CN(c1ccccc1)c1nc(N)c([N+](=O)[O-])c(N2CCCCCC2)n1	> 26 µM (inactive)
C=CCn1c(SCC(=O)Nc2cc(NC(C)=O)ccc2OC)nnc1-c1cccnc1	> 26 µM (inactive)
CCOC(=O)c1cnc2ccc(C)cc2c1Sc1ccc(F)cc1	> 12 µM (inactive)
Cc1c(/C=N/NC(=O)c2ccc(Br)o2)cnn1C	22.4 µM
Cc1ccc(C(=O)n2cnnc2N)cc1	> 26 µM (inactive)
Cc1cc(C)n2nc(N)c(N=Nc3cccc(Cl)c3)c2n1	> 26 µM (inactive)
CC(/C=C/c1cccs1)=C\C(=O)O	> 26 µM (inactive)
C(=N\N1CCN(Cc2cccc3ccccc23)CC1)/c1cccnc1	> 26 µM (inactive)
COc1ccc(-c2coc3cc4oc(=O)c(CC(=O)O)c(C)c4cc23)cc1	> 26 µM (inactive)
CC(C)OC(=O)c1ccc(COc2ccc3ccc(=O)oc3c2)o1	3.16 µM
Cc1ccc(C(=O)NNC(=O)c2ccccc2-n2cccc2)cc1	> 26 µM (inactive)
COc1ccc(NC(=S)Nc2ccccc2SC)c(OC)c1	24.2 µM
COc1ccc2nc(SC)c(C#N)cc2c1	> 26 µM (inactive)
CC(C)C(=O)N1CCC(n2nccc2NC(=O)CCOc2ccccc2)CC1	7.78 µM
Cc1cc2oc3c(c(=O)c2cc1C)C(c1ccc(C(C)C)cc1)N(CCCN1CCOCC1)C3=O (stereo not drawn)	> 26 µM (inactive)

SMILES	AC40
O=c1c2cc(N3CCOCC3)ccc2[nH]c(=S)n1Cc1ccccn1	23.5 µM
CCOCCCNC(=S)Nc1ccc2nc(N3CCOCC3)cc(C)c2c1	> 26 µM (inactive)
COc1ccc(NC(=O)NNC(=O)c2cc3occc3n2C)c(OC)c1	> 26 µM (inactive)
Cc1cc2c(cc1C)-c1nnnn1C(C)(C)C2	> 26 µM (inactive)
CCOC(=O)c1c(C)n(-c2ccc(C)cc2)c2c(CC(C)=O)c(Br)c(OC)c(O)c12	> 26 µM (inactive)
COc1ccc(CCNc2oc(-c3ccccc3OC)nc2C#N)cc1	> 26 µM (inactive)
CCCC(=O)Nc1cc(-c2nn(C)c(=O)c3ccccc23)ccc1OC	> 26 µM (inactive)
Fc1ccccc1-c1nc2nc3ccccc3nc2n1CC1CCCO1 (stereo not drawn)	21.8 µM
COc1ccc(/C=C2/SC(=O)N(CCNC(=O)C3COc4ccccc4O3)C2=O)cc1 (stereo not drawn)	5.69 µM
CC(C)NC(=O)CN(C(=O)CCC(=O)Nc1nccs1)c1ccc2c(c1)OCO2	> 26 µM (inactive)
COC(=O)Cn1c(=O)c2c(nc3n2CC(C)CN3CCc2ccccc2)n(C)c1=O (stereo not drawn)	> 26 µM (inactive)
ClC(Cl)c1nnc(-c2ccccc2)c(-c2c[nH]c3ccccc23)n1	> 26 µM (inactive)
C/C(CC(=O)Nc1cccc2c1CCCC2)=N\NC(=O)COc1ccccc1	> 26 µM (inactive)
CCOC(=S)SCC(=O)Nc1nc(C)c(C)s1	12.4 µM
Cc1ccc(Nc2c(N)c(=O)oc3ccccc23)cc1	> 26 µM (inactive)
CC(Oc1ccc(F)cc1Br)c1nc2ccccc2c(=O)[nH]1 (stereo not drawn)	17.3 µM
N#Cc1ccsc1NC(=O)CN1CCN(S(=O)(=O)c2ccc3ccccc3c2)CC1	> 26 µM (inactive)
CC1CCN(c2ccc(C=O)o2)CC1	> 26 µM (inactive)
O=C1/C(=C/c2ccc([N+](=O)[O-])cc2)Oc2cc(O)ccc21	> 26 µM (inactive)
CCNC(=S)N/N=C/c1ccc(-c2ccccc2)o1	> 26 µM (inactive)
Cc1noc2ncnc(Sc3ccc(Br)cc3)c12	> 26 µM (inactive)
CN(C)c1nc(N)nc(CSc2nnnn2-c2ccc(F)cc2)n1	> 26 µM (inactive)

SMILES	AC40
C=CCn1c(-c2cc(-c3ccccc3)sc2N)n[nH]c1=S	12.3 µM
CCOP(=O)(C(NC(=O)c1ccccc1Cl)=C(Cl)Cl)c1ccccc1 (stereo not drawn)	> 26 µM (inactive)
O=C(CCS(=O)(=O)c1ccccc1)Nc1ccccn1	> 26 µM (inactive)
O=C(NC(CO)(CO)CO)c1coc(=O)c(Br)c1	> 26 µM (inactive)
CN(Cc1ccccc1)C(=O)c1cc(-c2ccc(Br)cc2)on1	2.21 µM
CCC(C)(C)c1ccc(OC(=O)c2cccnc2Cl)cc1	> 26 µM (inactive)
CCOc1ccc2nc(COC(=O)c3cccc([N+](=O)[O-])c3)c(C(C)=O)[n+]([O-])c2c1	> 26 µM (inactive)
Cc1ccc(N2C(=O)SC(N(CC(=O)O)c3ccc(C)cc3)C2=O)cc1 (stereo not drawn)	9.53 µM
C=CCn1c(O)c(C(CC)=Nc2ccc3c(c2)CCC3)c(=O)[nH]c1=O	> 12 µM (inactive)
COc1cccc(-c2nn(-c3ccccc3)cc2C(=O)n2nnc3ccccc32)c1	> 26 µM (inactive)
COCCCNc1nc2nonc2nc1N1CCN(Cc2cccc(C)c2)CC1	> 26 µM (inactive)
CCCN1C(=O)c2ccccc2NC1c1ccc(Cl)c(Cl)c1 (stereo not drawn)	> 26 µM (inactive)
CCOC(=O)c1cc(C#N)c(SCc2ccc(C#N)cc2)nc1C	> 26 µM (inactive)
Cc1cccc(NCc2nc3ccccc3n2C)c1	1.61 µM
O=C(O)CSc1nc2ccccc2nc1Cc1ccccc1F	9.82 µM
COc1ccc(-c2cc(C(=O)NCc3ccco3)c3ccccc3n2)cc1	> 26 µM (inactive)
Cc1cccc(N2C(=O)C(O)=C(C(=O)c3cccs3)C2c2ccc(C(C)C)cc2)n1 (stereo not drawn)	9.04 µM
Nc1ncnc2c1CCC2	> 26 µM (inactive)
CN1CCN(NC(=O)/C=C/c2ccc(Br)cc2)CC1	> 26 µM (inactive)
O=C(O)CC12C[C@H]3C[C@@H](C1)CC(n1ncc(N4CCN(c5ccccc5)CC4)c(Cl)c1=O)(C3)C2	> 26 µM (inactive)
CCN(CC)CCCNC(=O)CSc1c2c(nc3cc(Cl)ccc13)CCCC2	22 µM
CCC(=O)N1CCN(c2ccc(NC(=O)COc3ccc(C)cc3C)cc2)CC1	> 26 µM (inactive)

SMILES	AC40
CNc1nc(-c2ccccc2)cc(C)c1S(C)(=O)=O	> 26 µM (inactive)
Cc1[nH]nc2c1C(c1cc(Br)cs1)C(C#N)=C(N)O2 (stereo not drawn)	12 µM
COc1cc(OC)cc(-c2nnc(Sc3ccc(C=O)cc3[N+](=O)[O-])o2)c1	> 26 µM (inactive)
COc1c(Br)cc(Br)cc1C(=O)O	> 26 µM (inactive)
CC(=O)Nc1nnc(SCC(=O)c2ccc(F)cc2)s1	17.4 µM
O=C1C=C(c2ccccc2)CC(/C=C/c2ccccc2)C1 (stereo not drawn)	18 µM
COc1ccccc1/C=C1/SC(=S)N(C(C)C(=O)NC2C=CS(=O)(=O)C2)C1=O (stereo not drawn)	> 26 µM (inactive)
O=C(CSc1nnc(-c2cccs2)o1)N1CCCc2ccccc21	> 26 µM (inactive)
O=C(O)CN1C(=O)/C(=C\c2cc(Br)ccc2OCc2ccc(F)cc2)SC1=S	> 26 µM (inactive)
Cc1cccc(OCC(=O)Nc2cc(C)ccc2O)c1	> 26 µM (inactive)
O=C(O)C(Cc1ccccc1)N1C(=O)c2c(Cl)c(Cl)c(Cl)c(Cl)c2C1=O (stereo not drawn)	> 12 µM (inactive)
COc1cc2nc(CSc3nc(-c4ccc(F)cc4)cs3)[nH]c(=O)c2cc1OC	> 26 µM (inactive)
COc1cccc(NC(=S)NC(=O)c2c(Cl)c(C)nn2C)c1	2.51 µM
Clc1ccc(SCc2csc(N3CCOCC3)n2)cc1	> 26 µM (inactive)
Cc1[nH]n(-c2ccccc2)c(=O)c1C=NCCc1ccccc1	9.52 µM
O=C1NC(=O)[C@]2(Cc3ccccc3N3CCN(c4ccccc4)CC32)C(=O)N1Cc1ccccc1 (stereo partly drawn)	2.51 µM
CSc1ccccc1-n1nnnc1SCC(=O)NCc1cccs1	> 26 µM (inactive)
Cc1csc2nc(CCNS(=O)(=O)c3cccs3)cn12	2.76 µM
C/C(Cn1cnc([N+](=O)[O-])n1)=N\NC(=O)c1ccccc1F	2.7 µM
N#Cc1ccc(Cl)cc1NC(=O)CNCc1cccs1	> 26 µM (inactive)
